# Source: patent US20050267055A1, “Agent for improvement of glucose tolerance” (USE-TECHNO CORPORATION, priority 2003, published 2005)
# Test: Glucose tolerance test in a dog after corosolic acid administration
# Assay type: in vivo
# Conditions: dog (beagle), 20 mg/kg of body weight corosolic acid single administration; 75 g grape sugar oral load; tests up to 28 days after administration vs 60 days before
# Procedure: (Glucose Tolerance Improving Effect of Corosolic Acid Administration in a Dog)
# A dog (beagle) was used as the test animal. 20 mg/kg of body weight of purified corosolic acid extracted from banaba leaves was administered to the animal, and the glucose tolerance improvement effect was evaluated.
# The glucose tolerance was evaluated by performing glucose tolerance tests according to the procedure described in (1)-(3) below. A glucose tolerance test was performed 60 days before corosolic acid administration, immediately after corosolic acid administration, and at 7 days, 14 days, 21 days and 28 days after corosolic acid administration. At time points other than immediately after corosolic acid administration, the glucose tolerance test was performed immediately after the same dose of D-sorbitol was orally administered as a placebo instead of corosolic acid. • (1) 75 g of grape sugar is administered orally to the dog. • (2) Blood is collected from the dog's vein at 0 minute, 30 minutes, 60 minutes, 90 minutes, 120 minutes, 180 minutes and 240 minutes after grape sugar administration, and the blood glucose level of the collected blood is measured using GLUTEST SENSOR (trade name, manufactured by SANWA KAKAGU KENKYUSHO CO.,LTD). • (3) The total of 7 blood glucose levels measured above in (2) is represented by ΣBG [mg/dl].
smiles,measurement,value
C[C@H]1[C@H](C)CC[C@]2(C(=O)O)CC[C@]3(C)C(=CC[C@@H]4[C@@]5(C)C[C@@H](O)[C@H](O)C(C)(C)[C@@H]5CC[C@]43C)[C@H]12 [corosolic acid],ΣBG (total of 7 blood glucose levels in glucose tolerance test),lower values for 28 days after corosolic acid adminisration than before corosolic acid adminisration
